Test results reported in ChEMBL document CHEMBL1201862, “PubChem BioAssay data set” (2004).
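Briefly, cells in 96-well plates were exposed to five compound concentrations for 48 h, and endpoints were estimated by linear interpolation. The concentration for 50% growth inhibition is given as GI50.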 Calls of active or inactive are those of the source. Rule as the data show it: active = GI50 up to about 1.1 µM and inactive = higher.

Assays:
Assay in all cases: NCI-60 cell line screen, 48 h
786-0 = system: 786-0
A498 = system: A498
A549 = system: A549
ACHN = system: ACHN
BT-549 = system: BT-549
CAKI-1 = system: CAKI-1
CCRF-CEM = system: CCRF-CEM
COLO 205 = system: COLO 205
DU-145 = system: DU-145
EKVX = system: EKVX
HCC 2998 = system: HCC 2998
HCT-116 = system: HCT-116
HCT-15 = system: HCT-15
HL-60 = system: HL-60
HOP-62 = system: HOP-62
HOP-92 = system: HOP-92
HT-29 = system: HT-29
IGROV-1 = system: IGROV-1
K562 = system: K562
KM12 = system: KM12
LOX IMVI = system: LOX IMVI
M14 = system: M14
MCF7 = system: MCF7
MDA-MB-231 = system: MDA-MB-231
MDA-MB-435 = system: MDA-MB-435
MDA-N = system: MDA-N
MOLT-4 = system: MOLT-4
NCI-H226 = system: NCI-H226
NCI-H23 = system: NCI-H23
NCI-H460 = system: NCI-H460
NCI-H522 = system: NCI-H522
NCI/ADR-RES = system: NCI/ADR-RES
OVCAR-3 = system: OVCAR-3
OVCAR-4 = system: OVCAR-4
OVCAR-5 = system: OVCAR-5
OVCAR-8 = system: OVCAR-8
PC-3 = system: PC-3
RXF 393 = system: RXF 393
SF-268 = system: SF-268
SF-295 = system: SF-295
SF-539 = system: SF-539
SK-MEL-5 = system: SK-MEL-5
SK-OV-3 = system: SK-OV-3
SN12C = system: SN12C
SNB-19 = system: SNB-19
SNB-75 = system: SNB-75
SR = system: SR
SW-620 = system: SW-620
TK-10 = system: TK-10
U-251 = system: U-251
UACC-257 = system: UACC-257
UACC-62 = system: UACC-62
UO-31 = system: UO-31
Hs-578T = system: Hs-578T
Malme-3M = system: Malme-3M
RPMI-8226 = system: RPMI-8226
SK-MEL-28 = system: SK-MEL-28
SK-MEL-2 = system: SK-MEL-2
T47D = system: T47D

CNC1(c2cc3ccccc3s2)CCCCC1
GI50 (786-0): 19.2 µM (inactive) | GI50 (A498): 33.3 µM (inactive) | GI50 (A549): 48.1 µM (inactive) | GI50 (ACHN): 42.6 µM (inactive) | GI50 (BT-549): 67 µM (inactive) | GI50 (CAKI-1): 42.1 µM (inactive) | GI50 (CCRF-CEM): < 0.01 µM (active) | GI50 (COLO 205): 18.9 µM (inactive) | GI50 (DU-145): 40.1 µM (inactive) | GI50 (EKVX): 0.433 µM (active) | GI50 (HCC 2998): 14.9 µM (inactive) | GI50 (HCT-116): 41.5 µM (inactive) | GI50 (HCT-15): 31.8 µM | GI50 (HL-60): < 0.01 µM (active) | GI50 (HOP-62): 33.9 µM (inactive) | GI50 (HOP-92): 14.3 µM (inactive) | GI50 (HT-29): 14.8 µM (inactive) | GI50 (IGROV-1): 19.1 µM (inactive) | GI50 (K562): 31.8 µM (inactive) | GI50 (KM12): 17.9 µM (inactive) | GI50 (LOX IMVI): 19.9 µM (inactive) | GI50 (M14): 18 µM (inactive) | GI50 (MCF7): 29.5 µM (inactive) | GI50 (MDA-MB-231): 23.2 µM (inactive) | GI50 (MDA-MB-435): 16.8 µM (inactive) | GI50 (MDA-N): 19.9 µM (inactive) | GI50 (MOLT-4): 42.2 µM (inactive) | GI50 (NCI-H226): 32.7 µM (inactive) | GI50 (NCI-H23): 57.4 µM (inactive) | GI50 (NCI-H460): 17.7 µM (inactive) | GI50 (NCI-H522): 12.7 µM (inactive) | GI50 (NCI/ADR-RES): 33.3 µM (inactive) | GI50 (OVCAR-3): 28.2 µM (inactive) | GI50 (OVCAR-4): 27.7 µM (inactive) | GI50 (OVCAR-5): 20.5 µM (inactive) | GI50 (OVCAR-8): 37.2 µM (inactive) | GI50 (PC-3): 18.1 µM (inactive) | GI50 (RXF 393): 23.4 µM (inactive) | GI50 (SF-268): 14.2 µM (inactive) | GI50 (SF-295): 25 µM (inactive) | GI50 (SF-539): 20.4 µM (inactive) | GI50 (SK-MEL-5): 16.3 µM (inactive) | GI50 (SK-OV-3): 39 µM (inactive) | GI50 (SN12C): 38.1 µM (inactive) | GI50 (SNB-19): 41.8 µM (inactive) | GI50 (SNB-75): 21.5 µM (inactive) | GI50 (SR): 25 µM (inactive) | GI50 (SW-620): < 0.01 µM (active) | GI50 (TK-10): 44.2 µM (inactive) | GI50 (U-251): 17.8 µM (inactive) | GI50 (UACC-257): 18.2 µM (inactive) | GI50 (UACC-62): 20.6 µM (inactive) | GI50 (UO-31): 46.9 µM (inactive)

CC(=O)Oc1c(C)cc(-c2cc(C)c(OC(C)=O)c(C)c2)cc1C
GI50 (786-0): 36.3 µM (inactive) | GI50 (A549): 42.4 µM (inactive) | GI50 (ACHN): 33 µM (inactive) | GI50 (BT-549): 10.8 µM (inactive) | GI50 (CAKI-1): 57.9 µM (inactive) | GI50 (CCRF-CEM): 31 µM (inactive) | GI50 (COLO 205): 50.4 µM (inactive) | GI50 (DU-145): 41.7 µM (inactive) | GI50 (EKVX): 37.3 µM (inactive) | GI50 (HCT-116): 41.1 µM (inactive) | GI50 (HCT-15): 20.3 µM | GI50 (HL-60): 35.2 µM (inactive) | GI50 (HOP-62): 45.7 µM (inactive) | GI50 (HOP-92): 36.3 µM (inactive) | GI50 (HT-29): 45.4 µM (inactive) | GI50 (Hs-578T): 15.7 µM (inactive) | GI50 (IGROV-1): 40.9 µM (inactive) | GI50 (K562): > 100 µM (inactive) | GI50 (KM12): 17.9 µM (inactive) | GI50 (LOX IMVI): 17.2 µM (inactive) | GI50 (M14): 31.1 µM (inactive) | GI50 (MCF7): > 100 µM (inactive) | GI50 (MDA-MB-435): 3.05 µM (inactive) | GI50 (MDA-N): 4.98 µM (inactive) | GI50 (MOLT-4): > 100 µM (inactive) | GI50 (Malme-3M): 89.3 µM (inactive) | GI50 (NCI-H226): 29.7 µM (inactive) | GI50 (NCI-H23): 15.4 µM (inactive) | GI50 (NCI-H460): 39.9 µM (inactive) | GI50 (NCI-H522): 24 µM (inactive) | GI50 (NCI/ADR-RES): 21.1 µM (inactive) | GI50 (OVCAR-3): 90.2 µM (inactive) | GI50 (OVCAR-4): 82.6 µM (inactive) | GI50 (OVCAR-5): 43.7 µM (inactive) | GI50 (OVCAR-8): 37.1 µM (inactive) | GI50 (PC-3): 14.1 µM (inactive) | GI50 (RPMI-8226): > 100 µM (inactive) | GI50 (SF-268): 36 µM (inactive) | GI50 (SF-295): 23.7 µM (inactive) | GI50 (SK-MEL-28): 27.6 µM (inactive) | GI50 (SK-MEL-2): 41.6 µM (inactive) | GI50 (SK-MEL-5): 25.4 µM (inactive) | GI50 (SK-OV-3): 19.5 µM (inactive) | GI50 (SN12C): 47.1 µM (inactive) | GI50 (SNB-19): 70.1 µM (inactive) | GI50 (SNB-75): 16.2 µM (inactive) | GI50 (SR): 75.2 µM (inactive) | GI50 (SW-620): 10.2 µM (inactive) | GI50 (TK-10): 30.5 µM (inactive) | GI50 (U-251): 15 µM (inactive) | GI50 (UACC-257): 41.6 µM (inactive) | GI50 (UACC-62): 23 µM (inactive) | GI50 (UO-31): 26.9 µM (inactive)

c1ccc2c(c1)ccc1ncccc12
GI50 (786-0): > 100 µM (inactive) | GI50 (A498): 55.8 µM (inactive) | GI50 (A549): > 100 µM (inactive) | GI50 (ACHN): > 100 µM (inactive) | GI50 (BT-549): 47.1 µM (inactive) | GI50 (CAKI-1): 85.9 µM (inactive) | GI50 (COLO 205): > 100 µM (inactive) | GI50 (DU-145): > 100 µM (inactive) | GI50 (EKVX): > 100 µM (inactive) | GI50 (HCC 2998): > 100 µM (inactive) | GI50 (HCT-116): > 100 µM (inactive) | GI50 (HCT-15): 58.2 µM | GI50 (HL-60): > 100 µM (inactive) | GI50 (HOP-62): > 100 µM (inactive) | GI50 (HOP-92): 44.6 µM (inactive) | GI50 (HT-29): > 100 µM (inactive) | GI50 (Hs-578T): > 100 µM (inactive) | GI50 (IGROV-1): > 100 µM (inactive) | GI50 (K562): > 100 µM (inactive) | GI50 (KM12): > 100 µM (inactive) | GI50 (LOX IMVI): > 100 µM (inactive) | GI50 (M14): > 100 µM (inactive) | GI50 (MCF7): > 100 µM (inactive) | GI50 (MDA-MB-231): > 100 µM (inactive) | GI50 (MDA-MB-435): > 100 µM (inactive) | GI50 (MOLT-4): > 100 µM (inactive) | GI50 (Malme-3M): > 100 µM (inactive) | GI50 (NCI-H226): > 100 µM (inactive) | GI50 (NCI-H23): > 100 µM (inactive) | GI50 (NCI-H460): > 100 µM (inactive) | GI50 (NCI-H522): > 100 µM (inactive) | GI50 (NCI/ADR-RES): > 100 µM (inactive) | GI50 (OVCAR-3): > 100 µM (inactive) | GI50 (OVCAR-4): > 100 µM (inactive) | GI50 (OVCAR-5): > 100 µM (inactive) | GI50 (OVCAR-8): > 100 µM (inactive) | GI50 (PC-3): 98.2 µM (inactive) | GI50 (RPMI-8226): > 100 µM (inactive) | GI50 (RXF 393): > 100 µM (inactive) | GI50 (SF-268): > 100 µM (inactive) | GI50 (SF-295): > 100 µM (inactive) | GI50 (SF-539): > 100 µM (inactive) | GI50 (SK-MEL-28): > 100 µM (inactive) | GI50 (SK-MEL-2): > 100 µM (inactive) | GI50 (SK-MEL-5): 75.2 µM (inactive) | GI50 (SN12C): > 100 µM (inactive) | GI50 (SNB-19): 85.7 µM (inactive) | GI50 (SNB-75): > 100 µM (inactive) | GI50 (SR): 58.2 µM (inactive) | GI50 (SW-620): > 100 µM (inactive) | GI50 (T47D): > 100 µM (inactive) | GI50 (TK-10): > 100 µM (inactive) | GI50 (U-251): 79.3 µM (inactive) | GI50 (UACC-257): > 100 µM (inactive) | GI50 (UACC-62): 83.8 µM (inactive) | GI50 (UO-31): > 100 µM (inactive)
